The record followed here is US10111847B2, “Compounds and methods for modulating vascular injury” (The Regents of the University of California, priority 2012, dated 2018).

The test system of assay [1] is inflammatory mediators. In words: Inflammation cytokine array of conditioned medium from sv-ECs. Format: cell-based, human. Conditions: 100 nm, 30 min; TNF α 1 ng/ml 18 hrs. Here is the method:
Media was collected and incubated for 2 hr with the inflammation array membranes. The cells were harvested for protein estimation for normalization purposes. The membranes were washed following instruction protocol supplied by the manufacturer (Raybiotech Inc., Norcross, Ga.) and probed with biotinylated anti-cytokine antibody cocktail (provided by the manufacturer) for 2 hrs. The membranes were again washed with appropriate buffers provided by the manufacturer and incubated for 2 hrs with HRP-conjugated streptavidin, followed by chemiluminescence based detection of signal by Chemidoc (Biorad Inc.)
Inflammatory signals are amplified by autocrine and paracrine pathways that include the elaboration of pro-inflammatory mediators into the local extracellular milieu. Cells grown in 6 cm dish were serum starved for 24 hrs. The cells were then pre-treated with 100 nm 7S-Maresin-1 for 30 min followed by 18 hrs of TNF α (1 ng/ml). Cell culture media was collected and incubated with human inflammation cytokine array membranes (AAH-INF-3-4, Raybiotech Inc.), coated with antibodies (in duplicate) recognizing 40 different inflammatory mediators.
FIGS. 19A-19C. (A, B) Representative membrane images from a set of three pairs. (C) Densitometric quantitation of each of the attenuated inflammatory mediators in three independent experiments was performed and is represented in the bar graph. […]

Assay [2] concerns human saphenous vein vascular smooth muscle (sv-VSMC) cells. The assay can be described thus: TNFα induced superoxide production (DHE) in sv-VSMC (Maresin-1). Format: cell-based. Conditions: 100 nM; TNFα 10 ng/ml 4 hr. Here is the method:
Mar-1. Cells were grown in 8-well chamber slides at a density of 15000 cells/well for 2 days for VSMCs and 50000 cells/well for 2 days for ECs in a 96 well plate. After treatments, cells were incubated with dihydroethidium (DHE, 3 μM, Invitrogen) or CellRox (Invitrogen Inc, 5 μM for ECs) in media for 30 minutes at 37° C. in a humidified chamber with 5% CO2 protected from light. DAPI nuclear counter staining was utilized for DHE staining. For DHE, fluorescence was detected with TRITC filter allowing the detection of the DHE emission wavelength of 590-620 nm. Fluorescence quantitation was performed using ImageJ analysis software. For ECs, fluorescence measurements were taken using a Spectramax M2e plate reader.
FIGS. 13A-13D. Representative merged images of DHE staining, counterstained with DAPI. (A), Negative control. (B), TNFα at 10 ng/ml for 4 hr. […] (E) Quantitative comparison of DHE staining intensity in the nucleus of human saphenous vein vascular smooth muscle (sv-VSMC) cells, treated with TNFα and 7S and 7R-Maresin-1 with and without pertussis toxin. (F) Quantitative comparison of cellular ROS production by CellRox (Life technologies, Carlsbad, Calif.) in human saphenous vein endothelial (EC) cells treated with TNFα (1 ng/nil) and 7S-Maresin-1 (N>=3). […]

In assay [3] the test system is ICAM-1, IL-1β, and IL-1α. In words: Gene expression in VSMC in presence or absence of pertussis toxin (PTX). Format: cell-based, human. Conditions: RvD2 10 nM; PTX 100 ng/ml; TNF-α. Here is the method: Cells are plated onto 6-well plates at 100% confluency in DMEM plus 10% FBS and allowed to attached overnight. Cells are then made quiescent by placing in serum-free media for 48-72 hours prior to start of experiments. Cells are treated with or without RvD1 or RvD2 at the indicated concentrations for one hour followed by co-incubation with cytokine (TNF-α 10 ng/ml) for up to 18 hours. In a separate set of experiments to examine the role of G-protein receptors, VSMCs are exposed to TNF-α and RvD2 (10 nM) as described above, in the presence or absence of pertussis toxin (PTX 100 ng/ml). Total RNA from rabbit sample or cells is isolated with PureLink RNA Mini kit (Ambion Life Technologies, Carlsbad, Calif.) with RNase-free DNase treatment according to manufacturer's protocol. One microgram of total RNA (from either VSMC or rabbit tissue) is used to generate cDNA using High Capacity cDNA Reverse Transcription Kit (Applied Biosystems, Foster City, Calif.) for subsequent RT-PCR reactions. Sybrgreen Amplified DNA is detected by incorporation SYBR Green (Qiagen, Germantown, Md.). […]
FIG. 9: Effects of RvD2 on gene expression in VSMC are sensitive to pertussis toxin (PTX). […] RNA was harvested and analyzed for the expression of ICAM-1, IL-1β, and IL-1α by qPCR (n=3, results are mean±SEM, **P<0.01, *P<0.05, one-way ANOVA followed by Bonferroni's post hoc test).

With `CC/C=C\C/C=C\C[C@H](O)\C=C/C=C/C=C/[C@@H](O)C/C=C\CCC(=O)O` [7S-Maresin-1, 7S,14R-dihydroxydocosa-4Z,8E,10Z,12Z,16Z,19Z-hexaenoic acid], the “levels of multiple inflammatory mediators in conditioned medium from EC” value in assay [1] is reported as “reduced”. In addition, the “TNF-α-induced superoxide production in VSMC” value in assay [2] was “significantly reduced”.

For `CC/C=C\C[C@H](O)[C@H](O)/C=C/C=C/C=C\C=C\[C@@H](O)C/C=C\CCC(=O)O` [RvD2, resolvin D2], the “effect of pertussis toxin on inhibition of ICAM-1, IL-1β, and IL-1α gene expression” value in assay [3] is on record as “abrogation of the inhibitory effects”.
